# Source: ChEMBL document CHEMBL1201862, “PubChem BioAssay data set” (2004)
# The source made the active and inactive calls.
# Columns and labels:
# [1] = A Cell Based Secondary Assay To Explore Cytotoxicity of Compounds that Sensitize Mycobacterium Tuberculosis to Beta-Lactam Antibiotics.; assay type: functional
# [2] = test system: Streptococcus sp. 'group A'; experiment: growth inhibition of control SK(-) GAS strain, dose response, counter-screen for streptokinase expression inhibitor project, luminescence, kanamycin, BacTiterGlo, confirmation (AID 1900); assay type: functional, organism-based
# Streptokinase A = molecular target: T1, Streptokinase A (Streptococcus pyogenes serotype M1, UniProt P10520); experiment: S. pyogenes streptokinase expression inhibitors, potency, dose response, plasminogen activation absorbance, OD405 (AID 1914); assay type: functional, Streptococcus pyogenes M1 GAS;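 further: secreted streptokinase activity via plasminogen activation per viability signal from cell pellet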
# T1 sequence (P10520 whole entry): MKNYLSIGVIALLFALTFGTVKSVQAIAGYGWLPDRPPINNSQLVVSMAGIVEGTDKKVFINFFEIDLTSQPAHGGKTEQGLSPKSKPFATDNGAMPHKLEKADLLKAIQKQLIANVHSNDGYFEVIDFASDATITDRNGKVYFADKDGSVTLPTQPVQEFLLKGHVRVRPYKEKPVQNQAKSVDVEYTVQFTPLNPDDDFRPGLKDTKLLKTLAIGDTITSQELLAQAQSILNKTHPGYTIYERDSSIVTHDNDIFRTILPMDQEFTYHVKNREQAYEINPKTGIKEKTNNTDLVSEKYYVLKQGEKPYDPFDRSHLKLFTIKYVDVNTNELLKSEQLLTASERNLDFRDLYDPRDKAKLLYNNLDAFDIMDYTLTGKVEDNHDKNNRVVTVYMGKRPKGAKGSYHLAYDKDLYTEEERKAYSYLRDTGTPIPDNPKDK
# NS3 = NS3 (Hepatitis C virus, UniProt A3EZJ3); experiment: PubChem AID 2173; set-up: species or system Hepacivirus hominis
# Chain of NS3 (A3EZJ3 whole entry): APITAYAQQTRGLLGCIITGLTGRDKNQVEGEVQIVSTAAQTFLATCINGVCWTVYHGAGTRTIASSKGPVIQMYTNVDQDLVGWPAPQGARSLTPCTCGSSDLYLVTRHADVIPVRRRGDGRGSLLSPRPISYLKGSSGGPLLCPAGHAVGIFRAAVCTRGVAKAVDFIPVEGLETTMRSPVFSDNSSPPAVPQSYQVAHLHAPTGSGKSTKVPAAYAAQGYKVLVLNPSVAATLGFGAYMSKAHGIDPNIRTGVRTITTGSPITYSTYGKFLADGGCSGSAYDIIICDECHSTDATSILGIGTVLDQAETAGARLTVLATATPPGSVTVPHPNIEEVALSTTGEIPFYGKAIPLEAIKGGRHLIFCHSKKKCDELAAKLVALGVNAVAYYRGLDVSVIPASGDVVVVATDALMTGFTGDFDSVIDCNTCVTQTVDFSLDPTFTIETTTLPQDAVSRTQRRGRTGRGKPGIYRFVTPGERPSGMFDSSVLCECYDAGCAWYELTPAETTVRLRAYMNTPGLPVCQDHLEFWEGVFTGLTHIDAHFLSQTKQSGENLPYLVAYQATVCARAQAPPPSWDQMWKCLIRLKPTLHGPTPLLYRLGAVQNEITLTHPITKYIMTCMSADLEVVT
# Streptococcus = experiment: Group A Streptococcus viability loss, dose response, counter-screen for streptokinase expression inhibitor project, luminescence, BacTiterGlo (AID 1915); assay type: functional, organism-based;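 further: potency for reduction of bacterial viability or growth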
# [3] = Luminescence Cell-Based Dose Retest to Confirm Inhibitors of Cancer Stem Cells. [Related pubchem assays (depositor defined):AID2717, AID2721]; assay type: functional; details: Homo sapiens
# [4] = inhibitors of firefly luciferase expression or activity, dose response, H4 neuroglioma cells, luminescence (AID 1990); assay type: functional, cell-based
# [5] = insulin promoter down-regulators in MIN6 cells, imaging, high-content screening, mouse beta cells (AID 1628); assay type: functional
# [6] = molecular target: T2, Neuropeptide Y receptor type 2 (Homo sapiens, UniProt P49146); experiment: NPY-Y2 antagonist potency, selectivity check, dose response, counter-screen for NPY-Y1 antagonist project, cell-based (AID 1278); assay type: functional
# T2 sequence (P49146 whole entry): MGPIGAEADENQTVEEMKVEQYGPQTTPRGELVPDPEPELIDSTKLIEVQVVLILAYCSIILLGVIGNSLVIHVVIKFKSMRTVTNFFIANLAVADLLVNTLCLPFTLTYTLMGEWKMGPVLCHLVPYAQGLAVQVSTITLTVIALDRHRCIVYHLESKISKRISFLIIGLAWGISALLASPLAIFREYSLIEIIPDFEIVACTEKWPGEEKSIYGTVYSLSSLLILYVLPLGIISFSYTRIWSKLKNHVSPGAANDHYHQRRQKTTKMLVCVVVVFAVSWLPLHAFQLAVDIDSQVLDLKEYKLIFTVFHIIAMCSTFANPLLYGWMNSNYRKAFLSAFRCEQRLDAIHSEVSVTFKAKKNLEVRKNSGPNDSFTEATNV
# [7] = molecular target: Luciferin 4-monooxygenase (Photinus pyralis, UniProt P08659); experiment: Counter Screen for Luciferase-based Assay Positives. [Related pubchem assays: 620, 618, 411 ]
# [8] = Luminescence Cell-Based Dose Response HTS to Identify Inhibitors of 5'UTR Stem-Loop Driven Prion Protein mRNA Translation in H4 Neuroglioblastoma Cells. [Related pubchem assays: 1827 (Project Summary), 1813 (Primary HTS)]; assay type: functional
# [9] = cytotoxicity in MIN6 insulinoma cells, dose response, cytotoxicity control, cell-based, mouse insulinoma (AID 2122); assay type: functional;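 further: confirmatory high-throughput counterscreen run to flag cytotoxic compounds; mouse MIN-6 beta cells carrying an insulin promoter eGFP reporter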
# Galanin receptor type 2 = Galanin receptor type 2 (Homo sapiens, UniProt O43603); experiment: Dose Response cell-based high-throughput screening assay to identify antagonists of galanin receptor 2 (GALR2). [Related pubchem assays: 828, 866 ]; assay type: functional
# Chain of Galanin receptor type 2 (O43603 whole entry): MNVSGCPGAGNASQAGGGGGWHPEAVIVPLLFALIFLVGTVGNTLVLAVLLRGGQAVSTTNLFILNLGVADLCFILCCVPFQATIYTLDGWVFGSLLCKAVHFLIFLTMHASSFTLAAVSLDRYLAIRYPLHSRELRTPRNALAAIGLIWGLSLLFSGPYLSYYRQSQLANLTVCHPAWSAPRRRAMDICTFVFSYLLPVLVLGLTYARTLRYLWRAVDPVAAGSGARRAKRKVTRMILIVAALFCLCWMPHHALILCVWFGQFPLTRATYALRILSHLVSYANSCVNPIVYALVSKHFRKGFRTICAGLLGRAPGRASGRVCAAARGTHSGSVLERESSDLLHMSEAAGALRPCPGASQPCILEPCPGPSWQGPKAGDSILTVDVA
# [10] = inhibitors of SNCA 5'UTR-driven reporter translation, confirmation, H4 neuroglioma cells, luminescence (AID 1988); assay type: functional, cell-based
# [11] = molecular target: T3, Neuropeptide Y receptor type 1 (Homo sapiens, UniProt P25929); experiment: NPY-Y1 receptor antagonist potency, dose response, cell-based (AID 1277); assay type: functional
# T3 sequence (P25929 whole entry): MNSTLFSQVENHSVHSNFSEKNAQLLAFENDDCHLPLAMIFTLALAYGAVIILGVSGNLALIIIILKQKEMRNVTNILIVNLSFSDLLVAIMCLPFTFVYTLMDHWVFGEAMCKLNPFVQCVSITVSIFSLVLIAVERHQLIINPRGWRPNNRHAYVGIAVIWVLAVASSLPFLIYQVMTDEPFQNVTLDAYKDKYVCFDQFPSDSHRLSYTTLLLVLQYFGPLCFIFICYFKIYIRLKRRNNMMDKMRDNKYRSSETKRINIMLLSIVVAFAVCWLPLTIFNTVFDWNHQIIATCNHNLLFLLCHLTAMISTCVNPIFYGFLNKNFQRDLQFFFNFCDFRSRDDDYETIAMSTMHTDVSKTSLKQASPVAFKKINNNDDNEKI
# HT-1080 = experiment: cytotoxicity in HT1080 fibrosarcoma cells, cell-based, fluorescence readout (AID 620); assay type: functional; details: Homo sapiens
# [12] = molecular target: Photoreceptor-specific nuclear receptor (Homo sapiens, UniProt Q9Y5X4); assay type: functional, cell-based;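 further: CHO-S cells with Gal4-NCOR and VP16-NR2E3 two-hybrid luciferase reporter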
# Chain of Photoreceptor-specific nuclear receptor (Q9Y5X4 whole entry, the tested form may be a part): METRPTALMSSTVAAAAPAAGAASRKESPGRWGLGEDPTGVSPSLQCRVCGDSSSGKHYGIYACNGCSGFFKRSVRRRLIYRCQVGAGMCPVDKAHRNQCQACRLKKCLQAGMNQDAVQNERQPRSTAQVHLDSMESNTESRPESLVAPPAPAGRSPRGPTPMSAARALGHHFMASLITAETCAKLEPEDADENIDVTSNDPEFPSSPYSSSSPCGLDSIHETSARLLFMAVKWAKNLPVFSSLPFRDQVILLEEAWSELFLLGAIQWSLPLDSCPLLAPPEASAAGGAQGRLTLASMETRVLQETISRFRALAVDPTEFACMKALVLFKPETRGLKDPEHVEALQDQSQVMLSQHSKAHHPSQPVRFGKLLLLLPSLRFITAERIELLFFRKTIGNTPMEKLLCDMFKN
# [13] = molecular target: T4, Mannose-6-phosphate isomerase (Homo sapiens, UniProt P34949); experiment: inhibitors of human PMI, primary screen, biochemical, fluorescence intensity, coupled assay (AID 1209)
# T4 sequence (P34949 whole entry): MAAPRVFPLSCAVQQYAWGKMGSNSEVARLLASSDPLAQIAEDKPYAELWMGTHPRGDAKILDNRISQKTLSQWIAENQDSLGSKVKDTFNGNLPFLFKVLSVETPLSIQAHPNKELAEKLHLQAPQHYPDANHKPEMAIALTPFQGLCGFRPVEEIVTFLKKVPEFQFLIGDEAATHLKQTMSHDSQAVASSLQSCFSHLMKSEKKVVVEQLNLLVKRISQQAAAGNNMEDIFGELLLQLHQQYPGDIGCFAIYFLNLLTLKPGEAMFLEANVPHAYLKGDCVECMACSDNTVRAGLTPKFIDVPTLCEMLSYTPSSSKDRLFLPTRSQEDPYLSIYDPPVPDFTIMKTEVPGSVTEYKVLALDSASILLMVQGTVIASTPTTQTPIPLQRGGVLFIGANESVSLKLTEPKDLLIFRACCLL
# [14] = molecular target: Peroxisome proliferator-activated receptor gamma/Nuclear receptor coactivator 2 (Homo sapiens, UniProt P37231); assay type: functional;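 further: agonist potency for raising coactivator recruitment to the receptor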
# [15] = molecular target: Peroxisome proliferator-activated receptor gamma/Nuclear receptor coactivator 1 (Homo sapiens, UniProt P37231); assay type: functional;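 further: agonist potency as compounds enhance coactivator SRC-1 recruitment to PPARgamma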
# [16] = molecular target: Peroxisome proliferator-activated receptor gamma/Nuclear receptor coactivator 3 (Homo sapiens, UniProt P37231); assay type: functional;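 further: agonist potency for raising coactivator recruitment to the receptor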
# Chain of Peroxisome proliferator-activated receptor gamma/Nuclear receptor coactivator 3 (P37231 whole entry): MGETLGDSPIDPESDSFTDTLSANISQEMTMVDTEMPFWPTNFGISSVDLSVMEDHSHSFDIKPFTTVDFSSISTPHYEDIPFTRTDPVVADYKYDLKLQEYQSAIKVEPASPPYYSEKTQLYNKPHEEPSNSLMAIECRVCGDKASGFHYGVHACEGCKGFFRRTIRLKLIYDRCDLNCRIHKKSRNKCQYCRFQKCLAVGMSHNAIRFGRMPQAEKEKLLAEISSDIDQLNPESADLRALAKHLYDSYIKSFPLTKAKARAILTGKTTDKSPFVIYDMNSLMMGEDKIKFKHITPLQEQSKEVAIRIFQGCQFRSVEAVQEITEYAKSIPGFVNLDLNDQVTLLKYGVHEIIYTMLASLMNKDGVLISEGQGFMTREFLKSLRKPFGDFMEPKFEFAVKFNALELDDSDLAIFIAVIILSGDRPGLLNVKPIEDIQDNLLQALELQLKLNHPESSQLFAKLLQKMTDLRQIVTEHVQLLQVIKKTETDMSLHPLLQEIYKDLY
# Chain of Peroxisome proliferator-activated receptor gamma/Nuclear receptor coactivator 3 (Q9Y6Q9 whole entry, further chain): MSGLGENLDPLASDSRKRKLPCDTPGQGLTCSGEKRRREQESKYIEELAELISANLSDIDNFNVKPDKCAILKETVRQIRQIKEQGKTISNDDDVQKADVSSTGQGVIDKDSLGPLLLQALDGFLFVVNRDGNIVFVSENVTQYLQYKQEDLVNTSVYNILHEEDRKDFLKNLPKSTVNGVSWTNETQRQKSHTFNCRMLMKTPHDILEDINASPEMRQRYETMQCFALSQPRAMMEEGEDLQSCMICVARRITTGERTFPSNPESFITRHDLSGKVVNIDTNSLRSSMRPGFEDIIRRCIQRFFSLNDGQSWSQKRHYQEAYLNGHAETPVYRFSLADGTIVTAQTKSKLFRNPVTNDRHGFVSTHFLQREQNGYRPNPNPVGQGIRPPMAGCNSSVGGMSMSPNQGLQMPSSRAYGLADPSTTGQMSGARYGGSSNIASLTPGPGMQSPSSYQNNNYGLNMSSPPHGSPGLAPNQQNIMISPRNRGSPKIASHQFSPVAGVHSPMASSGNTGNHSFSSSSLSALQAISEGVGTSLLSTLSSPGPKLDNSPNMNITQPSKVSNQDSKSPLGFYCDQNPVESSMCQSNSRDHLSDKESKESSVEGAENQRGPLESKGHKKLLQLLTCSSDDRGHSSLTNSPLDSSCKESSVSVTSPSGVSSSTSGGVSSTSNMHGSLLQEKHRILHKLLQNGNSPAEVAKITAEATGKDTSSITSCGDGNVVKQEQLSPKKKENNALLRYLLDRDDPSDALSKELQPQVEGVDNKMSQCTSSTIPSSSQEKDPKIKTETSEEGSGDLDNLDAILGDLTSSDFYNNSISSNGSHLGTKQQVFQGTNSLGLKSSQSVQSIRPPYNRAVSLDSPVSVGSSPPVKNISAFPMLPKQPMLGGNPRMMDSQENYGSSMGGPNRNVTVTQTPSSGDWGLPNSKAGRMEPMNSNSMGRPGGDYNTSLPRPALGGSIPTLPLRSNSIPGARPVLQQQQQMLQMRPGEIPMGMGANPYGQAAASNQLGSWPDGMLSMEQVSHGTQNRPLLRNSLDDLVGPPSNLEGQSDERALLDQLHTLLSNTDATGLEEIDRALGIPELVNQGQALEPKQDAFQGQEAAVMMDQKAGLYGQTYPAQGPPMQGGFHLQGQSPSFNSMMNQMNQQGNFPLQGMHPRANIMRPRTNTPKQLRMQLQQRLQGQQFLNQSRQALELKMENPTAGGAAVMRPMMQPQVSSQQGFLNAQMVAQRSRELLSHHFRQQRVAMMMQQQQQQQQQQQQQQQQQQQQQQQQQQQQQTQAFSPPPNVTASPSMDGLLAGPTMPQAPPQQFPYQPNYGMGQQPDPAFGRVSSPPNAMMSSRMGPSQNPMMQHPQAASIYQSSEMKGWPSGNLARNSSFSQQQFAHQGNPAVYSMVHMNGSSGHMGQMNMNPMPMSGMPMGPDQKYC
# [17] = molecular target: T5, Endoribonuclease toxin MazF (Escherichia coli K-12, UniProt P0AE70); experiment: MazF toxin RNase activators, dose response, biochemical, fluorescence, single-stranded RNA substrate, uHTS hits (AID 588481); assay type: functional
# T5 sequence (P0AE70 whole entry): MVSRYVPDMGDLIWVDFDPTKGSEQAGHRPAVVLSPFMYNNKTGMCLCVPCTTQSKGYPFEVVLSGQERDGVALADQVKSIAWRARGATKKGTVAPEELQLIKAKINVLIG
# [18] = molecular target: T5, Endoribonuclease toxin MazF; experiment: fluorescent RNA oligo signal without MazF, dose response, counter-screen for MazEF activator project, biochemical, fluorescence, single-stranded RNase substrate (AID 588502); assay type: functional
# NADPH oxidase 1 = NADPH oxidase 1 (Homo sapiens, UniProt Q9Y5S8); assay type: functional, cell-based;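 further: Cell-based assay with luminescence read-out, IC50 derived from inhibitor dose-response curves; intracellular ROS from endogenous NOX1 in intact HT29 colon cancer cells; potency of inhibitors that lower the ROS luminescence signal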
# Chain of NADPH oxidase 1 (Q9Y5S8 whole entry): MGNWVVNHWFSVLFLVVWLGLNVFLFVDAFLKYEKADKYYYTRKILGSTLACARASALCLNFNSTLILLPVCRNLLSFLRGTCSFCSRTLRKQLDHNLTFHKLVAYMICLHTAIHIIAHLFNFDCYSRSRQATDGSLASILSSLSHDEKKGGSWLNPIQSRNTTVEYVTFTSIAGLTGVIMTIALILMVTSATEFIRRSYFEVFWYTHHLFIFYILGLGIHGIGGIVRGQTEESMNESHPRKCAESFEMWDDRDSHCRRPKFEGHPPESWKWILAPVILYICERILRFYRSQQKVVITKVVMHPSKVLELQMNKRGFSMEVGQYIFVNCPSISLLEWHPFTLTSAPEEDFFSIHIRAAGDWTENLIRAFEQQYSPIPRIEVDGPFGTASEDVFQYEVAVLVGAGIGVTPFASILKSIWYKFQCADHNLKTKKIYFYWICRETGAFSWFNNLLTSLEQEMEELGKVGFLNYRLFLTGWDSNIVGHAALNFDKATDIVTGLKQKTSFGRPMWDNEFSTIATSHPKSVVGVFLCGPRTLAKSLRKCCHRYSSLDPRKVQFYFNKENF
# Estrogen receptor = molecular target: T6, Estrogen receptor (Homo sapiens, UniProt P03372);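 further: potency for inhibiting coactivator peptide recruitment to the receptor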
# T6 sequence (P03372 whole entry): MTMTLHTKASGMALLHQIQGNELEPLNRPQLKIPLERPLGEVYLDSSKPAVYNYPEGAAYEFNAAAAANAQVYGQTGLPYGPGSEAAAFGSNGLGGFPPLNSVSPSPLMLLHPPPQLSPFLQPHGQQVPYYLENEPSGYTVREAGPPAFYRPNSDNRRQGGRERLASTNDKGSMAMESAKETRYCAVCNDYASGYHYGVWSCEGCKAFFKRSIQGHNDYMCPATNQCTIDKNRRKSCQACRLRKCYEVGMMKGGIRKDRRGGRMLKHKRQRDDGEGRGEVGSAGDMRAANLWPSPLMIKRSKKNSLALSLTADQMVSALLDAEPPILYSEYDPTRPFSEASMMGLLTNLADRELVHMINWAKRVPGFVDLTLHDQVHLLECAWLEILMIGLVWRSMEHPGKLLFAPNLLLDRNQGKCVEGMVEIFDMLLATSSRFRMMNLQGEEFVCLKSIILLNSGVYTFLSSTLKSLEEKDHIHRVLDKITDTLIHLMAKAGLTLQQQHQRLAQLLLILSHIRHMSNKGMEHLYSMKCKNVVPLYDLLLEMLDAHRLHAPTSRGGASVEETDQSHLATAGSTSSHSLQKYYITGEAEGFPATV
# Estrogen receptor beta [19] = molecular target: T7, Estrogen receptor beta (Homo sapiens, UniProt Q92731);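 further: recombinant ER-beta bound to coactivator SRC1 peptide in presence of estradiol agonist; inhibitors block coactivator peptide binding and lower the FRET signal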
# T7 sequence (Q92731 whole entry): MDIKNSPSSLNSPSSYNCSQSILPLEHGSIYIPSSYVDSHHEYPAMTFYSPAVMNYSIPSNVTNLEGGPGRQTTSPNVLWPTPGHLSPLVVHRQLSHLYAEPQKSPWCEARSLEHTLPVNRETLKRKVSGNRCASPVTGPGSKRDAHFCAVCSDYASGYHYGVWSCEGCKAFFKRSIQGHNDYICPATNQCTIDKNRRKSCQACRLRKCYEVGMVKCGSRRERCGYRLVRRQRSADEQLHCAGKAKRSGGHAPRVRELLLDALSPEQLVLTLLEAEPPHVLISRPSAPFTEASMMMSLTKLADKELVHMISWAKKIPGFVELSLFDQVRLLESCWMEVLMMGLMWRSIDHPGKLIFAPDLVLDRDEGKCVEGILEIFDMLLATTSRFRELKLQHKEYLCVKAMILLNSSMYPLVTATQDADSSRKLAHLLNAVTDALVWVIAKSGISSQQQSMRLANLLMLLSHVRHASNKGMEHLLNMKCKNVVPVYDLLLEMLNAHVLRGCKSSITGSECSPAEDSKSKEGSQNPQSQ
# Estrogen receptor beta [20] = molecular target: T7, Estrogen receptor beta; experiment: ERβ–SRC-3 coactivator interaction inhibitors, confirmation, orthogonal assay, biochemical, ELISA, streptavidin-HRP readout (AID 1060)
# Protein skinhead-1 = molecular target: T8, Protein skinhead-1 (Caenorhabditis elegans, UniProt P34707); assay type: functional
# T8 sequence (P34707 whole entry): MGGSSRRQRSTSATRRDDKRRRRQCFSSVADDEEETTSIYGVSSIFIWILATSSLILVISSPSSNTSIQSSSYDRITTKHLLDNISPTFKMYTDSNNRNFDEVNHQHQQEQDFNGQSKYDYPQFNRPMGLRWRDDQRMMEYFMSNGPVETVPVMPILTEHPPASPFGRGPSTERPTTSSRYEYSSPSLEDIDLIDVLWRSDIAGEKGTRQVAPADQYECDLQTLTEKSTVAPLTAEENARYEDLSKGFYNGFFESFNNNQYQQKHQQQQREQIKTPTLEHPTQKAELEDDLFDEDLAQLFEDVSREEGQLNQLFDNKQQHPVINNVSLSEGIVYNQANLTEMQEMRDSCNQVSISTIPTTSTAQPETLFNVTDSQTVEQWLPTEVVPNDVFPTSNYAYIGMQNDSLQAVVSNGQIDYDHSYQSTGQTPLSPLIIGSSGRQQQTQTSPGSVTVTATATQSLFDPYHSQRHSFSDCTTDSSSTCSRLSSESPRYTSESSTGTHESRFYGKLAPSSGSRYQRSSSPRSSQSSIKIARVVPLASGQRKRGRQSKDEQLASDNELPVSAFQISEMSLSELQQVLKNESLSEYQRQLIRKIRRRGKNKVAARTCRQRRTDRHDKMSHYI
# Bcl-2-like protein 10 = Bcl-2-like protein 10 (Homo sapiens, UniProt Q9HD36); experiment: Biochemical TR3 FP assay of Bcl-B inhibitor potency, EC50 (AID 1243); assay type: functional
# Chain of Bcl-2-like protein 10 (Q9HD36 whole entry): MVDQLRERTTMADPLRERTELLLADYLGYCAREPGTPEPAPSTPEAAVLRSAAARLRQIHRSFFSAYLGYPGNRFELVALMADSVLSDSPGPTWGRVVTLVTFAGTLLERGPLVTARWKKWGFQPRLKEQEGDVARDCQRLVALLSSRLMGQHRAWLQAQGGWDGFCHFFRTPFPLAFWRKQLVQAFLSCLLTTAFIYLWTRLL
# 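Wherever AC50 is given: cells exposed to compound for roughly 70 hours or longer before luminescence read.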
compound,measurement,setting,value
O=C(Nc1ccc([N+](=O)[O-])cc1)c1cc2ccccc2nc1Cl,CC50,[1],> 40 µM (active)
CCCCCCCCCc1nc2sc3c(c2c(=O)n1NC(=O)c1ccccc1[N+](=O)[O-])CC(C)(C)OC3,EC50,[2],1.73 µM (active)
same,EC50,Streptokinase A,2.23 µM (active)
same,IC50,NS3,11.2 µM (not active)
same,EC50,Streptococcus,63.4 µM (active)
same,AC50,[3],0.843 µM (active)
Cc1cc(C(=O)CSc2nc3ccccc3[nH]2)c(C)n1CC1CCCO1 (stereo not given),EC50,[4],7.29 µM (inconclusive)
same,IC50,[5],1.2 µM (active)
same,IC50,[6],> 35 µM (not active)
same,EC50,[7],> 100 µM (not active)
same,EC50,[8],8.51 µM (active)
same,IC50,[9],0.874 µM (active)
same,IC50,Galanin receptor type 2,> 42 µM (not active)
same,EC50,[10],4.95 µM (active)
same,IC50,[11],> 35 µM (not active)
same,EC50,HT-1080,> 50 µM (not active)
same,IC50,[12],11.7 µM (inactive)
COc1ccc(NC(=O)C2CC(=O)n3cnnc3S2)cc1 (stereo not given),IC50,[13],> 50 µM (not active)
Cn1c(/C(C#N)=C(\O)COc2ccc3ccccc3c2)nc2ccccc21,EC50,[14],> 79.4 µM (not active)
same,EC50,[15],> 79.4 µM (not active)
same,EC50,[16],> 79.4 µM (not active)
same,AC50,[3],< 0.16 µM (active)
same,EC50,[17],> 99 µM (inactive)
same,EC50,[18],> 99 µM (inactive)
O=C(Nc1ccc(OCc2ccccc2)cc1)Nc1ccc(N2CCCCC2)cc1,IC50,NADPH oxidase 1,> 17 µM (not active)
Cc1ccc(-c2csc(NC(=O)c3ccno3)n2)cc1,IC50,Estrogen receptor,7.19 µM (active)
same,IC50,Estrogen receptor beta [19],3.87 µM (active)
same,IC50,Estrogen receptor beta [20],< 0.023 µM (not active)
same,IC50,Protein skinhead-1,> 100 µM (inactive)
Oc1ccc(Nc2nc(-c3ccccn3)cs2)cc1,EC50,Bcl-2-like protein 10,3.69 µM (active)
